Assay results as given in ChEMBL document CHEMBL4480449, “Conolodinines A-D, Aspidosperma- Aspidosperma Bisindole Alkaloids with Antiproliferative Activity from Tabernaemontana corymbosa” (J Nat Prod, 2019).

Legend:
[1] = Cytotoxicity against human KB/S cells after 72 hrs by MTT assay; assay type: functional, cell-based
[2] = test system: KB/VJ300; assay: Cytotoxicity against human KB/VJ300 cells after 72 hrs by MTT assay; assay type: functional, cell-based
[3] = test system: MRC5; assay: Cytotoxicity against human MRC5 cells after 72 hrs by MTT assay; assay type: cell-based
[4] = test system: KB/VJ300; assay: Cytotoxicity against human KB/VJ300 cells after 72 hrs in presence of vincristine by MTT assay; assay type: functional, cell-based; further: test concentration or dose not given here
[5] = test system: A549; assay: Cytotoxicity against human A549 cells after 72 hrs by MTT assay; assay type: functional, cell-based; settings: A549, 72 h
[6] = test system: HCT-116; assay: Cytotoxicity against human HCT116 cells after 72 hrs by MTT assay; assay type: functional, cell-based; settings: HCT-116, 72 h
[7] = test system: MCF7; assay: Cytotoxicity against human MCF7 cells after 72 hrs by MTT assay; assay type: functional, cell-based
[8] = test system: HT-29; assay: Cytotoxicity against human HT-29 cells after 72 hrs by MTT assay; assay type: functional, cell-based
[9] = test system: MDA-MB-231; assay: Cytotoxicity against human MDA-MB-231 cells after 72 hrs by MTT assay; assay type: functional, cell-based
[10] = test system: PC-3; assay: Cytotoxicity against human PC3 cells after 72 hrs by MTT assay; assay type: functional, cell-based
[11] = test system: LNCaP; assay: Cytotoxicity against human LNCAP cells after 72 hrs by MTT assay; assay type: functional, cell-based

Structure (SMILES)	IC50 ([1]; Homo sapiens, 72 h) [µM]	IC50 ([2]; Homo sapiens, KB/VJ300, 72 h) [µM]	IC50 ([3]; Homo sapiens, MRC5, 72 h) [µM]	IC50 ([4]; Homo sapiens, KB/VJ300, 72 h) [µM]	IC50 [5] [µM]	IC50 [6] [µM]	IC50 ([7]; Homo sapiens, MCF7, 72 h) [µM]	IC50 ([8]; Homo sapiens, HT-29, 72 h) [µM]	IC50 ([9]; Homo sapiens, MDA-MB-231, 72 h) [µM]	IC50 ([10]; Homo sapiens, PC-3, 72 h) [µM]	IC50 ([11]; Homo sapiens, LNCaP, 72 h) [µM]	IC50 [1] [µM]	IC50 ([3]; mrc5) [µM]	IC50 ([2]; kb/vj300) [µM]	IC50 ([7]; mcf7) [µM]	IC50 ([8]; ht-29) [µM]	IC50 ([9]; mda-mb-231) [µM]	IC50 ([10]; pc-3) [µM]	IC50 ([4]; kb/vj300) [µM]	IC50 ([11]; lncap) [µM]
CC[C@]12C=CCN3CC[C@]4(C(=C(C(=O)OC)C1)Nc1cc5c(cc14)[C@@H]1[C@H](O5)[C@@H](O)[C@@]4(CC)CC(C(=O)OC)=C5Nc6c(cc(O)c(OC)c6OC)[C@@]56CCN1[C@@H]46)[C@@H]32	1.5	> 10																		
CC[C@@]12CC(C(=O)OC)=C3Nc4c(cc(O)c(OC)c4OC)[C@@]34CCN([C@@H]3c5cc6c(cc5O[C@@H]3[C@H]1O)NC1=C(C(=O)OC)C[C@]35CCO[C@H]3CCN3CC[C@@]16[C@@H]35)[C@@H]24	0.5		6.2	1.4	> 10															
CC[C@@]12CC(C(=O)OC)=C3Nc4cc5c(cc4[C@@]34CCN(C[C@H]3O[C@H]31)[C@@H]24)[C@@H]1[C@H](O5)[C@@H](O)[C@@]2(CC)CC(C(=O)OC)=C3Nc4c(ccc(OC)c4O)[C@@]34CCN1[C@@H]24	0.1	> 10		1.3	> 10	1.1	0.6	0.3	1.4	7.9	9.6									
CC[C@@]12CC(C(=O)OC)=C3Nc4cc5c(cc4[C@@]34CCN(C[C@H](O)[C@H]1O)[C@@H]24)[C@@H]1[C@H](O5)[C@@H](O)[C@@]2(CC)CC(C(=O)OC)=C3Nc4c(cc(O)c(OC)c4OC)[C@@]34CCN1[C@@H]24	0.7	> 10		> 10	> 10	2.1	1.2	1.7	> 10	2.5	0.3									
CC[C@]12C=CCN3CC[C@]4(C(=C(C(=O)OC)C1)Nc1cc5c(cc14)[C@@H]1[C@H](O5)[C@@H](O)[C@@]4(CC)CC(C(=O)OC)=C5N=C6C(=CC(=O)C(OC)=C6OC)[C@@]56CCN1[C@H]64)[C@@H]32	0.03	4.6	5.6	4.3	> 10	0.1	0.8	0.4	0.5	0.3	2.8									
CC[C@@]12CC(C(=O)OC)=C3N=C4C(=CC(=O)C(OC)=C4OC)[C@@]34CCN([C@H](c3ccc5c(c3)[C@@]36CCN7C[C@H]8O[C@H]8[C@@](CC)(CC[C@@H]3N5C)[C@H]76)[C@H]3O[C@H]31)[C@H]42	1.1	2.7	> 10	4.4	> 10	2.4	8.4	3.4	6	4.3	3.3									
CC[C@@]12CC(C(=O)OC)=C3N=C4C(=CC(=O)C(OC)=C4OC)[C@@]34CCN([C@@H]3c5cc6c(cc5O[C@@H]3[C@H]1O)NC1=C(C(=O)OC)C[C@]3(CC)[C@@H]5O[C@@H]5CN5CC[C@@]16[C@@H]53)[C@H]42	0.1	8.6		1.5	> 10	0.2	0.3	0.2	0.4	0.7	> 10									
CC[C@@]12CC(C(=O)OC)=C3N=C4C(=CC(=O)C(OC)=C4OC)[C@@]34CCN([C@@H]3c5cc6c(cc5O[C@@H]3[C@H]1O)NC1=C(C(=O)OC)C[C@]3(CC)[C@H](O)[C@@H](O)CN5CC[C@@]16[C@@H]53)[C@H]42	0.2	> 10	> 10	> 10	> 10	3.1	3.5	2.3	5.4	> 10	2.6									
CC[C@@]12C=C(C(=O)OC)C3=Nc4c(cc(O)c(OC)c4OC)[C@@]34CCN([C@@H]3c5cc6c(cc5O[C@@H]3[C@H]1O)NC1=C(C(=O)OC)C[C@]3(CC)[C@@H]5O[C@@H]5CN5CC[C@@]16[C@@H]53)[C@@H]24	1.1	> 10		4.1	> 10	4.3	4.8	2.2	3.6	4.7	> 10									
CC[C@@]12CC(C(=O)OC)=C3N=C4C(=CC(=O)C(O)=C4OC)[C@@]34CCN([C@@H]3c5cc6c(cc5O[C@@H]3[C@H]1O)NC1=C(C(=O)OC)C[C@]3(CC)[C@@H]5O[C@@H]5CN5CC[C@@]16[C@@H]53)[C@H]42 (stereo in doubt; 7)		4.2		3	> 10	0.5	0.8	0.8	1.3	0.6	1.6	0.03	1.5							
CC[C@@]12CC(C(=O)OC)=C3N=C4C(=CC(=O)C(O)=C4OC)[C@@]34CCN([C@@H]3c5cc6c(cc5O[C@@H]3[C@H]1O)NC1=C(C(=O)OC)C[C@]3(CC)[C@@H]5O[C@@H]5CN5CC[C@@]16[C@@H]53)[C@H]42 (stereo in doubt; 8)												0.01	4	2.9	0.7	1	0.8	0.5	4.2	1
CC[C@@]12CC[C@@H]3N(C)c4ccc([C@@H]5[C@H]6O[C@H]6[C@@]6(CC)CC(C(=O)OC)=C7Nc8c(cc(O)c(OC)c8OC)[C@@]78CCN5[C@@H]68)cc4[C@@]34CCN(C[C@H]3O[C@H]31)[C@@H]24 [CONOFOLINE]	> 10	> 10			8.2	6.6	> 10	8.5	9.9	2.3	> 10									
CC[C@@]12CC(C(=O)OC)=C3Nc4cc5c(cc4[C@@]34CCN(C[C@H]3O[C@H]31)[C@@H]24)[C@@H]1[C@H](O5)[C@@H](O)[C@@]2(CC)CC(C(=O)OC)=C3Nc4c(cc(O)c(OC)c4OC)[C@@]34CCN1[C@@H]24 [CONOPHYLLINE]	0.03	> 10		4.9	3.2	0.8	2.1	3	1.6	0.3	> 10									
COc1ccc(CCN(C)CCCC(C#N)(c2ccc(OC)c(OC)c2)C(C)C)cc1OC (stereo unspecified) [VERAPAMIL]				0.8																
CC[C@]1(O)C[C@H]2CN(CCc3c([nH]c4ccccc34)[C@@](C(=O)OC)(c3cc4c(cc3OC)N(C=O)[C@H]3[C@@](O)(C(=O)OC)[C@H](OC(C)=O)[C@]5(CC)C=CCN6CC[C@]43[C@@H]65)C2)C1 [VINCRISTINE]	0.0004	2.6																		
